One data set has as its system HT1080 cells. As to the kind of experiment: S phase cell cycle delay. It counts as cell-based, human. The settings on record: prevented by uridine or cytidine (FIG. 1e).
The target of data set [1] is T1, DHODH (mitochondria isolated from K562 cells) (Homo sapiens, UniProt Q02127).
T1 construct: Mitochondria were isolated from K562 cells in log phase growth with a Dounce homogenizer; endogenous in cells; host or cells: K562 cells (isolated mitochondria)
As to the kind of experiment: DHODH activity with purified mitochondria as enzyme source. The following applies: 30 minutes of treatment (FIG. 2c). It counts as biochemical.

In data set [2] the test system is AML subject derived cell lines. Briefly: Proliferation of AML subject-derived cells (Celltiter Glo). The following applies: 72 hours, five AML subject derived cell lines (FIG. 4e). It counts as cell-based, human. For orientation: In ATP-based viability assays light output follows the ATP content of the culture.
The subject of data set [3] is MOML-13 acute myeloid leukemia (AML) cells. Briefly: In vitro differentiation, CD14 and CD11b staining, FACS. It counts as cell-based, human. The settings on record: 100 nM, 72 hours, vs DMSO, anti-CD14 and CD11b (FIG. 8). The source says:
The side-effects associated with these DHODH inhibitors are believed to be due to off-target activities such as kinase inhibition [21; 22]. […] The antiviral compound GSK983 was recently reported as a DHODH inhibitor [23]. […] FACS analysis was done on FACSCalibur (FIG. 8).

Data set [4] in a line: Blood-brain barrier penetration, whole-body autoradiography. It counts as in vivo. The following applies: evaluation, rats.
For data set [5] the following is noted: subjects with solid tumors [24]; cited from earlier work.
Another data set deals with DHODH (Homo sapiens, UniProt Q02127). Briefly: Purified rhDHODH enzymatic assay. It counts as biochemical. The arrangement: full length purified recombinant human DHODH or mitochondria isolated from K562 cells were used as enzyme sources. The settings on record: compared with activity in hematologic cancer cells and other DHODH inhibitors. An excerpt:
Low pyrimidine pool levels may affect certain translation factor(s) or mechanisms required for the non-canonical protein synthesis of stress-regulated mRNAs. […] EIF1A is an isoform that controls translation start codon recognition. Low uridine levels may also affect the mRNA substrate directly: depletion of pyrimidine nucleotides in cancer cells can cause a starvation-like stress response leading to changes in methylation and pseudouridylation of mRNA modifications.
In Vitro DHODH Activity Assays. The chromogen reduction assay was carried out as previously reported. DHODH activity was determined in the presence of compounds or vehicle control using the standard colorimetric DHODH continuous assay in which the oxidation of dihydroorotic acid (DHO) and subsequent reduction of ubiquinone is coupled with and measured by monitoring the reduction of 2,6-dichlorophenolindophenol (DCPIP). Briefly, full length purified recombinant human DHODH or mitochondria isolated from K562 cells were used as enzyme sources to test compound inhibition of DHODH activity. […] The DCIP reduction was monitored by measuring the absorbance at OD610 nm on a BioTek Power Wave XS2 and the enzyme reaction velocity was derived for each reaction using the GENS software.

Structures are written as SMILES.

Chain of DHODH (Q02127 whole entry, canonical isoform): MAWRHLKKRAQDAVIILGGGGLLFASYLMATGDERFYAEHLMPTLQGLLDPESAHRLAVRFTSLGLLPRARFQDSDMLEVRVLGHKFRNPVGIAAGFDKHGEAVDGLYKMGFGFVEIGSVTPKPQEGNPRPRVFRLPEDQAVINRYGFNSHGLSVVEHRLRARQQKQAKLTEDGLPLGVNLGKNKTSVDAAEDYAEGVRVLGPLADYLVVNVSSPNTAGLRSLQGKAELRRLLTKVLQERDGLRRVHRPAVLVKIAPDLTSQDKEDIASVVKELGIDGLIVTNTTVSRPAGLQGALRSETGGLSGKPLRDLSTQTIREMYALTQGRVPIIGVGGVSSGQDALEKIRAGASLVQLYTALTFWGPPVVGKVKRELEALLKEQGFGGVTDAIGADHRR
T1 sequence (Q02127 whole entry): as the sequence (Q02127 whole entry, canonical isoform) above

On to `COc1ccc([C@H]2c3[nH]c4ccc(Cl)cc4c3CCN2C(=O)Oc2ccc(Cl)cc2)cc1` [Cpd 1, 4-chlorophenyl (S)-6-chloro-1-(4-methoxyphenyl)-1,3,4,9-tetrahydro-2H-pyrido[3,4-b]indole-2-carboxylate], for which the “S phase cell cycle” value in the data set on HT1080 cells is listed as “induced S phase cell cycle delay”. Also, the “inhibition of DHODH activity (orotate production by LC-MS/MS)” value in data set [1] is “more potently than did teriflunomide and with similar potency as brequinar”. In addition, in data set [2], the inhibition of proliferation entry is listed as “inhibition of proliferation in all five AML subject derived cell lines tested”. The in vitro differentiation result in data set [3] is “induces in vitro differentiation”. In addition, the blood-brain barrier penetration result in data set [4] is recorded as “penetrates the blood-brain barrier”. Also, the myeloid suppression entry in data set [5] is “did not show myeloid suppression”. For the same compound, the “inhibition of DHODH functional activity in purified rhDHODH enzymatic assays” value at DHODH is “less inhibition of DHODH functional activity”.

Source of the values: patent US11458126B2, “DHODH inhibitor for use in treating hematologic cancers” (PTC THERAPEUTICS, INC., priority 2017, dated 2022).
